What follows are compounds tested on HBV (assay: HBV infection in HepG2-NTCP cells (HBeAg AlphaLISA in supernatants)). Settings: Hepatitis B virus, 192 h; HBV infection of HepG2-NTCP cells; HBeAg in supernatants at day 8 post infection; read-out: Cellular EC50.
Assay type: cell-based
Procedure, shortened: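 HepG2-NTCP A3 cells were pre-incubated 2 h with 3-fold serially diluted compounds, then infected with HBV at 2000 GE/cell with 4% PEG (0.5% DMSO final). After washing on day 1, cells stayed in 2.5% DMSO medium; supernatant HBeAg measured by AlphaLISA on day 8, EC50 versus DMSO controls.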

Row | EC50 [nM] | Compound
1 | > 1000 | CN1[C@@H](Cc2ccc(Cl)cc2)CN(c2ccccc2)c2cc(F)c(-c3ccc(F)c(C(=O)O)c3)cc2S1(=O)=O [Example 2]
2 | < 100 | CN1[C@H](C2CCCCC2)CN(c2ccccc2)c2cc(Cl)c(-c3cc(NC(=O)OC4CCC4)c(C(=O)O)s3)cc2S1(=O)=O [Example 250]
3 | 100 to 1000 | CC(C)CC1CN(c2ccccc2)c2cc(Cl)c(-c3cc(Cl)cc(C(=O)O)c3)cc2S(=O)(=O)N1C (stereo not shown) [Example 37]
4 | 100 to 1000 | CN1C[C@@H](C2CCCCC2)N(C)S(=O)(=O)c2cc(-c3ccc(F)c(C(=O)O)c3)c(-c3ccccc3F)cc21 [Example 581]
5 | 100 to 1000 | CN1C(c2cnn(C)c2)CN(c2ccccc2)c2cc(Cl)c(-c3ccc(F)c(C(=O)O)c3)cc2S1(=O)=O (stereo not shown) [Example 79]
6 | < 100 | Cc1cscc1COc1cc2c(cc1-c1ccc(F)c(C(=O)O)c1)S(=O)(=O)N(C)[C@H](C1CCCCC1)CN2c1ccccc1 [Example 338]
7 | 100 to 1000 | CC(C)C[C@@H]1CN([C@@H]2CCOC2)c2cc(Oc3ccccc3F)c(-c3ccc(F)c(C(=O)O)c3)cc2S(=O)(=O)N1C [Example 470]
8 | < 100 | CC(C)C[C@@H]1CN(c2ccccc2)c2cc(Oc3cccc(OC(F)(F)F)c3)c(-c3ccc(F)c(C(=O)O)c3)cc2S(=O)(=O)N1C [Example 438]
9 | < 100 | CCCCC[C@@H](C)Oc1cc2c(cc1-c1ccc(F)c(C(=O)O)c1)S(=O)(=O)N(C)[C@H](C1CCCCC1)CN2c1ccccc1 [Example 355]
10 | < 100 | CN1[C@H](C2CCCCC2)CN(c2ccccc2)c2cc(Cl)c(-c3cc4c(c(C(=O)O)c3)OCO4)cc2S1(=O)=O [Example 153, (R)-6-(7-chloro-3-cyclohexyl-2-methyl-1,1-dioxido-5-phenyl-2,3,4,5-tetrahydrobenzo[f][1,2,5]thiadiazepin-8-yl)benzo[d][1,3]dioxole-4-carboxylic acid]
11 | < 100 | Cc1csc(COc2cc3c(cc2-c2cc(F)c(C(=O)O)s2)S(=O)(=O)N(C)[C@H](C2CCCCC2)CN3c2ccccc2)n1 [Example 501]
12 | < 100 | CC(C)C[C@@H]1CN(c2ccccc2)c2cc(OCCc3cscn3)c(-c3ccc(F)c(C(=O)O)c3)cc2S(=O)(=O)N1C [Example 460]
13 | 100 to 1000 | CN1[C@H](C2CCCCC2)CN(c2ccc(F)cc2)c2cc(Cl)c(-c3ccc(F)c(C(=O)O)c3)cc2S1(=O)=O [Example 294]
14 | > 1000 | CC(C)C[C@@H]1CN(c2ccccc2)c2cc(Cl)c(-c3cccc(S(C)(=N)=O)c3)cc2S(=O)(=O)N1C (stereo partly shown) [Example 184]
15 | > 1000 | COc1cc2c(cc1-c1cccc(C(=O)O)c1)S(=O)(=O)N(C)C(C)CN2c1ccccc1 (stereo not shown) [Example 15, 3-(7-methoxy-2,3-dimethyl-1,1-dioxido-5-phenyl-2,3,4,5-tetrahydrobenzo[f][1,2,5]thiadiazepin-8-yl)benzoic acid]
16 | > 1000 | CN1[C@H](C2CCCCC2)CNc2cc(-c3ccncc3)c(-c3ccc(F)c(C(=O)O)c3)cc2S1(=O)=O [Example 570]
17 | > 1000 | CN1[C@H](C2CCCCC2)CN(c2ccccc2)c2cc(Cl)c([C@H]3C[C@@H](C(=O)O)C3)cc2S1(=O)=O [Example 607, (1S,3s)-3-((R)-7-chloro-3-cyclohexyl-2-methyl-1,1-dioxido-5-phenyl-2,3,4,5-tetrahydrobenzo[f][1,2,5]thiadiazepin-8-yl)cyclobutane-1-carboxylic acid]
18 | < 100 | CC(C)C[C@@H]1CN(c2ccccc2)c2cc(-c3cccnc3)c(-c3ccc(F)c(C(=O)O)c3)cc2S(=O)(=O)N1C [Example 580]

Continued, compound first:

Row | Compound | EC50 [nM]
19 | CN1[C@H](C2CCCCC2)CN(c2ccccc2)c2cc(Cl)c(-c3ccc(NS(=O)(=O)CC4CCC4)c(C(=O)O)c3)cc2S1(=O)=O [Example 272] | < 100
20 | CN1[C@H](C2CCCC2)CN(c2ccccc2)c2cc(Cl)c(-c3ccc(Cl)c(C(=O)O)c3)cc2S1(=O)=O [Example 67] | < 100
21 | CC(C)C[C@@H]1CN(c2ccccc2)c2cc(-c3ccc(F)cc3)c(-c3ccc(F)c(C(=O)O)c3)cc2S(=O)(=O)N1C [Example 573, (R)-2-fluoro-5-(7-(4-fluorophenyl)-3-isobutyl-2-methyl-1,1-dioxido-5-phenyl-2,3,4,5-tetrahydrobenzo[f][1,2,5]thiadiazepin-8-yl)benzoic acid] | < 100
22 | CN1[C@H](CN2CCCC2)CN(c2ccccc2)c2cc(Cl)c(-c3ccc(F)c(C(=O)O)c3)cc2S1(=O)=O [Example 110] | > 1000
23 | CN1[C@H](C2CCCCC2)CN(c2ccc(C(F)F)cc2)c2cc(Cl)c(-c3ccc(F)c(C(=O)O)c3)cc2S1(=O)=O [Example 303] | 100 to 1000
24 | CC(C)C[C@@H]1CN(c2ccccc2)c2cc(-c3ccccc3F)c(-c3ccc(F)c(C(=O)O)c3)cc2S(=O)(=O)N1C [Example 576] | < 100
25 | CN1[C@H](C2CCCCC2)CN(c2ccccc2)c2cc(C3CCN(C(=O)C(F)(F)F)C3)c(-c3ccc(F)c(C(=O)O)c3)cc2S1(=O)=O (stereo partly shown) [Example 601] | 100 to 1000
26 | CN1[C@H](C2CCCCC2)CN(c2cncc(F)c2)c2cc(Cl)c(-c3ccc(F)c(C(=O)O)c3)cc2S1(=O)=O [Example 280, (R)-5-(7-chloro-3-cyclohexyl-5-(5-fluoropyridin-3-yl)-2-methyl-1,1-dioxido-2,3,4,5-tetrahydrobenzo[f][1,2,5]thiadiazepin-8-yl)-2-fluorobenzoic acid] | 100 to 1000
27 | CN1[C@H](C2CCCCC2)CN(c2cccc(OC(F)(F)F)c2)c2cc(Cl)c(-c3ccc(F)c(C(=O)O)c3)cc2S1(=O)=O [Example 293] | < 100
28 | CC(C)COC(=O)Nc1cc(-c2cc3c(cc2F)N(c2ccccc2)C[C@@H](C2CCCCC2)N(C)S3(=O)=O)sc1C(=O)O [Example 266] | < 100
29 | CN1[C@H](C2CCCCC2)CN(c2ccccc2)c2cc(OC3CC4(CCC4)C3)c(-c3ccc(F)c(C(=O)O)c3)cc2S1(=O)=O [Example 377] | < 100
30 | CC(C)C[C@@H]1CN(c2ccccc2)c2cc(Oc3ccc(Cl)cc3)c(-c3ccc(F)c(C(=O)O)c3)cc2S(=O)(=O)N1C [Example 433] | 100 to 1000
31 | CC(C)Oc1ccccc1COc1cc2c(cc1-c1cc(F)c(C(=O)O)s1)S(=O)(=O)N(C)[C@H](C1CCCCC1)CN2c1ccccc1 [Example 505] | < 100
32 | CN1[C@H](C2CCCCC2)CN(c2cccc(OCC(F)(F)F)c2)c2cc(Cl)c(-c3ccc(F)c(C(=O)O)c3)cc2S1(=O)=O [Example 313] | < 100
33 | CCCC[C@H]1CN(c2ccccc2)c2cc(N3CCCC3)c(-c3ccc(F)c(C(=O)O)c3)cc2S(=O)(=O)N1C [Example 543] | > 1000
34 | CN1[C@H](C2CCC2)CN(c2ccccc2)c2cc(OC(C)(C)C)c(-c3ccc(F)c(C(=O)O)c3)cc2S1(=O)=O [Example 465] | 100 to 1000

Row | Compound | EC50 [nM]
35 | COC1CCN(c2cc3c(cc2-c2ccc(Cl)c(C(=O)O)c2)S(=O)(=O)N(C)[C@H](C2CCCCC2)CN3c2ccccc2)CC1 [Example 559] | 100 to 1000
36 | O=C(O)c1cncc(-c2cc3c(cc2F)N(c2ccccc2)CC2CC4(CC4)CN2S3(=O)=O)c1 (stereo not shown) [Example 6] | > 1000
37 | CN1[C@H](C2CCCCC2)CN(c2ccccc2)c2cc(OCC3CN(C(=O)OC(C)(C)C)C3)c(-c3cc(F)c(C(=O)O)s3)cc2S1(=O)=O [Example 509] | < 100
38 | CN1[C@H](C2CCCCC2)CN(c2ccccc2)c2cc(Cl)c(-c3cc(NC(=O)OCC4CC4)c(C(=O)O)s3)cc2S1(=O)=O [Example 252] | < 100
39 | CN1[C@H](C2CCCCC2)CN(c2ccccc2)c2cc(Cl)c(-c3cccc(C(=O)O)c3Cl)cc2S1(=O)=O [Example 152, (R)-2-chloro-3-(7-chloro-3-cyclohexyl-2-methyl-1,1-dioxido-5-phenyl-2,3,4,5-tetrahydrobenzo[f][1,2,5]thiadiazepin-8-yl)benzoic acid] | > 1000
40 | CC(C)CS(=O)(=O)Nc1cc(-c2cc3c(cc2Cl)N(c2ccccc2)C[C@@H](C2CCCCC2)N(C)S3(=O)=O)sc1C(=O)O [Example 276] | < 100
41 | CC(C)C[C@@H]1CN(c2ccccc2)c2cc(N3CCCc4ccccc43)c(-c3ccc(Cl)c(C(=O)O)c3)cc2S(=O)(=O)N1C [Example 557] | 100 to 1000
42 | CC(C)C[C@@H]1CN(c2ccccc2)c2cc(Cl)c(-c3ccc(OCC(F)(F)F)c(C(=O)O)c3)cc2S(=O)(=O)N1C [Example 214, (R)-5-(7-chloro-3-isobutyl-2-methyl-1,1-dioxido-5-phenyl-2,3,4,5-tetrahydrobenzo[f] [1,2,5]thiadiazepin-8-yl)-2-(2,2,2-trifluoroethoxy)benzoic acid] | 100 to 1000
43 | COc1cc(-c2cc3c(cc2Cl)N(c2ccccc2)C[C@@H](CC(C)C)N(C)S3(=O)=O)cc(C(=O)O)c1F [Example 179, (R)-5-(7-chloro-3-isobutyl-2-methyl-1,1-dioxido-5-phenyl-2,3,4,5-tetrahydrobenzo[f][1,2,5]thiadiazepin-8-yl)-2-fluoro-3-methoxybenzoic acid] | 100 to 1000
44 | CN1[C@H](c2ccc(F)cc2)CN(c2ccccc2)c2cc(Cl)c(-c3ccc(F)c(C(=O)O)c3)cc2S1(=O)=O [Example 56] | 100 to 1000
45 | CN1[C@H](C2CCCCC2)CN(c2ccccc2)c2cc(Cl)c(-c3cccc(C(=O)C(=O)O)c3)cc2S1(=O)=O [Example 207] | < 100
46 | COC(C)(C)C#Cc1cc2c(cc1-c1ccc(F)c(C(=O)O)c1)S(=O)(=O)N(C)[C@H](C1CCCCC1)CN2c1ccccc1 [Example 604] | < 100
47 | CN1[C@H](C2CCCCC2)CN(c2ccccc2)c2cc(Oc3cc(F)ccc3F)c(-c3ccc(F)c(C(=O)O)c3)cc2S1(=O)=O [Example 403] | < 100
48 | CN1[C@H](C2CCCCO2)CN(c2ccccc2)c2cc(Cl)c(-c3ccc(F)c(C(=O)O)c3)cc2S1(=O)=O (stereo partly drawn) [Example 104, 5-((3S)-7-chloro-2-methyl-1,1-dioxido-5-phenyl-3-(tetrahydro-2H-pyran-2-yl)-2,3,4,5-tetrahydrobenzo[f][1,2,5]thiadiazepin-8-yl)-2-fluorobenzoic acid] | 100 to 1000
49 | CN1[C@H](C2CCCCC2)CN(c2ccnc(F)c2)c2cc(Cl)c(-c3ccc(F)c(C(=O)O)c3)cc2S1(=O)=O [Example 284] | < 100
